Experiment: Safety and tolerability, Part A single ascending-dose phase in healthy participants
Assay type: in vivo, human
Experimental: A further two cohorts were recruited. […] Each individual participated in one treatment period only, with the exception of the food-effect cohort (cohort A3) in which there were two treatment periods separated by at least 7 days washout. Participants resided at the Clinical Research Unit (CRU) from 1 day ahead of dosing (day − 1) to day 3 and returned for a follow-up visit 5–7 days after their final dose. For all cohorts, doses were administered in the fasted state in the morning of day 1 of Treatment Period 1. In the food-effect cohort, doses were given 30 min after the start of a high-fat breakfast (973 calories total: approximately 150 protein calories, 250 carbohydrate calories, and 500–600 fat calories) on day 1 of Treatment Period 2. For cohorts A1 to A5 in Treatment Period 1, dosing occurred such that one pair (one active and one placebo) were dosed at least 24 h before the remaining participants. Continuation to dose those who remained was at the investigator’s discretion. Escalating doses were administered following satisfactory sponsor and investigator review of the safety and tolerability data (up to 48 h post-final dose) and PK data (up to 24 h post-final dose) from the lower dose levels.
Safety and tolerability assessments included adverse event (AE) monitoring, physical examinations, laboratory assessments (hematology, clinical chemistry, and urinalysis), vital signs (blood pressure, pulse rate, and body temperature) and ECG.
No formal statistical assessment was performed for the safety analysis.

[1] = Part A 50 mg (1 x 50 mg), fasted
[2] = Part A 50 mg (10 x 5 mg), fasted

OC[C@H]1O[C@H](Sc2cncc(Br)c2)[C@H](O)[C@@H](n2cc(-c3cc(F)c(F)c(F)c3)nn2)[C@H]1O [GB1211]
TEAE Pain, participants [1]: 0 n (%)
TEAE Rash, participants [1]: 0 n (%)
TEAE Respiratory, thoracic and mediastinal disorders, no. of AEs [1]: 1
TEAE Respiratory, thoracic and mediastinal disorders, participants [1]: 1 (16.7%) n (%)
TEAE Skin and subcutaneous tissue disorders, participants [1]: 0 n (%)
TEAE Wound, participants [1]: 0 n (%)
TEAE Back pain, participants (Part A 50 mg (1 x 50 mg), fed): 0 n (%)
TEAE Constipation, participants (Part A 50 mg (1 x 50 mg), fed): 0 n (%)
TEAE Cough, participants (Part A 50 mg (1 x 50 mg), fed): 0 n (%)
TEAE Decreased appetite, participants (Part A 50 mg (1 x 50 mg), fed): 0 n (%)
TEAE Diarrhea, participants (Part A 50 mg (1 x 50 mg), fed): 0 n (%)
TEAE Dry mouth, participants (Part A 50 mg (1 x 50 mg), fed): 0 n (%)
TEAE Dry skin, no. of AEs (Part A 50 mg (1 x 50 mg), fed): 1
TEAE Dry skin, participants (Part A 50 mg (1 x 50 mg), fed): 1 (16.7%) n (%)
TEAE Dyspepsia, participants (Part A 50 mg (1 x 50 mg), fed): 0 n (%)
TEAE Gastrointestinal disorders, participants (Part A 50 mg (1 x 50 mg), fed): 0 n (%)
TEAE General disorders and administration site conditions, participants (Part A 50 mg (1 x 50 mg), fed): 0 n (%)
TEAE Headache, participants (Part A 50 mg (1 x 50 mg), fed): 0 n (%)
TEAE Infections and infestations, participants (Part A 50 mg (1 x 50 mg), fed): 0 n (%)
TEAE Injury, poisoning and procedural complications, participants (Part A 50 mg (1 x 50 mg), fed): 0 n (%)
TEAE Medical device site reaction, participants (Part A 50 mg (1 x 50 mg), fed): 0 n (%)
TEAE Metabolism and nutrition disorders, participants (Part A 50 mg (1 x 50 mg), fed): 0 n (%)
TEAE Musculoskeletal and connective tissue disorders, participants (Part A 50 mg (1 x 50 mg), fed): 0 n (%)
TEAE Nasopharyngitis, participants (Part A 50 mg (1 x 50 mg), fed): 0 n (%)
TEAE Nervous system disorders, participants (Part A 50 mg (1 x 50 mg), fed): 0 n (%)
TEAE Pain, participants (Part A 50 mg (1 x 50 mg), fed): 0 n (%)
TEAE Rash, participants (Part A 50 mg (1 x 50 mg), fed): 0 n (%)
TEAE Respiratory, thoracic and mediastinal disorders, participants (Part A 50 mg (1 x 50 mg), fed): 0 n (%)
TEAE Skin and subcutaneous tissue disorders, no. of AEs (Part A 50 mg (1 x 50 mg), fed): 1
TEAE Skin and subcutaneous tissue disorders, participants (Part A 50 mg (1 x 50 mg), fed): 1 (16.7%) n (%)
TEAE Wound, participants (Part A 50 mg (1 x 50 mg), fed): 0 n (%)
TEAE Back pain, no. of AEs [2]: 1
TEAE Back pain, participants [2]: 1 (16.7%) n (%)
TEAE Constipation, participants [2]: 0 n (%)
TEAE Cough, participants [2]: 0 n (%)
TEAE Decreased appetite, participants [2]: 0 n (%)
TEAE Diarrhea, participants [2]: 0 n (%)
TEAE Dry mouth, participants [2]: 0 n (%)
TEAE Dry skin, participants [2]: 0 n (%)
TEAE Dyspepsia, participants [2]: 0 n (%)
TEAE Gastrointestinal disorders, participants [2]: 0 n (%)
TEAE General disorders and administration site conditions, participants [2]: 0 n (%)
TEAE Headache, participants [2]: 0 n (%)
TEAE Infections and infestations, participants [2]: 0 n (%)
TEAE Injury, poisoning and procedural complications, participants [2]: 0 n (%)
TEAE Medical device site reaction, participants [2]: 0 n (%)
TEAE Metabolism and nutrition disorders, participants [2]: 0 n (%)
TEAE Musculoskeletal and connective tissue disorders, no. of AEs [2]: 1
TEAE Musculoskeletal and connective tissue disorders, participants [2]: 1 (16.7%) n (%)
TEAE Nasopharyngitis, participants [2]: 0 n (%)
TEAE Nervous system disorders, participants [2]: 0 n (%)
TEAE Pain, participants [2]: 0 n (%)
TEAE Rash, participants [2]: 0 n (%)
TEAE Respiratory, thoracic and mediastinal disorders, participants [2]: 0 n (%)
TEAE Skin and subcutaneous tissue disorders, participants [2]: 0 n (%)
TEAE Wound, participants [2]: 0 n (%)
TEAE Back pain, participants (Part A 100 mg, fasted): 0 n (%)
TEAE Constipation, participants (Part A 100 mg, fasted): 0 n (%)
TEAE Cough, participants (Part A 100 mg, fasted): 0 n (%)
TEAE Decreased appetite, participants (Part A 100 mg, fasted): 0 n (%)
TEAE Diarrhea, participants (Part A 100 mg, fasted): 0 n (%)
TEAE Dry mouth, participants (Part A 100 mg, fasted): 0 n (%)
TEAE Dry skin, participants (Part A 100 mg, fasted): 0 n (%)
TEAE Dyspepsia, no. of AEs (Part A 100 mg, fasted): 1
TEAE Dyspepsia, participants (Part A 100 mg, fasted): 1 (16.7%) n (%)
TEAE Gastrointestinal disorders, no. of AEs (Part A 100 mg, fasted): 1
TEAE Gastrointestinal disorders, participants (Part A 100 mg, fasted): 1 (16.7%) n (%)
TEAE General disorders and administration site conditions, participants (Part A 100 mg, fasted): 0 n (%)
TEAE Headache, participants (Part A 100 mg, fasted): 0 n (%)
TEAE Infections and infestations, no. of AEs (Part A 100 mg, fasted): 1
TEAE Infections and infestations, participants (Part A 100 mg, fasted): 1 (16.7%) n (%)
TEAE Injury, poisoning and procedural complications, participants (Part A 100 mg, fasted): 0 n (%)
TEAE Medical device site reaction, participants (Part A 100 mg, fasted): 0 n (%)
TEAE Metabolism and nutrition disorders, participants (Part A 100 mg, fasted): 0 n (%)
TEAE Musculoskeletal and connective tissue disorders, participants (Part A 100 mg, fasted): 0 n (%)
TEAE Nasopharyngitis, no. of AEs (Part A 100 mg, fasted): 1
TEAE Nasopharyngitis, participants (Part A 100 mg, fasted): 1 (16.7%) n (%)
TEAE Nervous system disorders, participants (Part A 100 mg, fasted): 0 n (%)

From paper PMC10010643 (Cancer Chemotherapy and Pharmacology, 2023)
